Results published in US20170067871A1, “HIGH-THROUGHPUT CELLULAR ANALYSIS USING MICROBUBBLE ARRAYS” (University of Rochester, priority 2015, published 2017).
“Also recorded” adds a separate entry of the source.

Legend:
[1] = system: cutaneous squamous cell carcinoma cell colonies (SCC cells); assay: Drug resistance screen of squamous carcinoma cell colonies in microbubble well arrays, CalceinAM/PI live/dead staining; assay type: cell-based
Experimental: To enrich for the sphere cells, established colonies were cultured in the presence of a chemotherapeutic agent (e.g. Cisplatin). Traditional chemotherapeutic agents work by killing rapidly dividing cells, one of the main properties of most cancer cells. This means that chemotherapy also harms cells that divide rapidly under normal circumstances. Most chemotherapeutic drugs work by impairing mitosis (cell division), effectively targeting fast-dividing cells and inducing apoptosis. After Day 7 the cell culture media was changed and 10 uM or 10 nM cisplatin and incubated for 2 to 7 days, respectively. After which the chips were transferred into fresh media prior to a live/dead staining with CalceinAM/PI followed by stem cell marker analysis.

[2] = system: multi-cellular tumor spheroids; details: microbubble well array based perfusion system; cited from earlier work

SMILES | surviving sphere cells as share of initial cells seeded in the MB well array ([1]; 10 μM Cisplatin for 48 hr, CalceinAM (live) / propidium iodide (dead) staining, colonies from one or two cells per MB well) [%] | drug resistance of spheroid versus spread cell morphology (live/dead staining) ([1]; established colonies, 10 uM or 10 nM cisplatin for 2 to 7 days, respectively, CalceinAM/PI) | resistance of spheroid cells versus adherent cells to treatment [2]
N.N.[Cl][Pt][Cl] [Cisplatin] | ~5 | the spheroid cells have greater resistance in response to chemo drug than the spread cell; also recorded: sphere cells exhibit drug resistance | 
COc1cccc2c1C(=O)c1c(O)c3c(c(O)c1C2=O)C[C@@](O)(C(=O)CO)C[C@@H]3O[C@H]1C[C@H](N)[C@H](O)[C@H](C)O1 [doxorubicin] |  |  | spheroid cells are more resistant to doxorubicin treatment than adherent cells
